# Experimental data as given in publication PMC6522510 (Nature Communications, 2019).
# What was measured:
# Set-up in all cases: species or system AML cell lines (8); Primary HTS, single concentration about 10 uM, Cell Titer Glo viability; log10 luminescence, per cent inhibition relative to cycloheximide control
# Conditions in all cases: 72 h, relative to cycloheximide control, log10 luminescence; inhibitor
# CHRF288-11 = system: CHRF288-11
# CMK = system: CMK
# U937 = system: U937
# ML-2 = system: ML-2
# CMS = system: CMS
# MV4-11 = system: MV4-11
# M07e = system: M07e
# MOLM-13 = system: MOLM-13
Compound,CHRF288-11 %inh (CHRF288-11) [%],CMK %inh (CMK) [%],U937 %inh (U937) [%],ML-2 %inh (ML-2) [%],CMS %inh (CMS) [%],MV4-11 %inh (MV4-11) [%],M07e %inh (M07e) [%],MOLM-13 %inh (MOLM-13) [%]
"COc1cc2ncn(-c3cc(O[C@H](C)c4ccccc4Cl)c(C(N)=O)s3)c2cc1OC [SJ000573003-2, U20723/53/1 | U20723/56/1]",41.02,110.4,82.96,11.11,80.13,78.95,88.84,108.1
"CS(=O)(=O)CCNCc1ccc(-c2ccc3ncnc(Nc4ccc(OCc5ccccc5)c(Cl)c4)c3c2)o1 [SJ000573004-1, U12816/179/1]",2.861,1.726,-2.727,2.349,-1.14,1.075,-1.936,-1.767
"[O-][S+]1CCN(Cc2ccc(-c3ccc4ncnc(Nc5ccc(OCc6cccc(F)c6)c(Cl)c5)c4c3)o2)CC1 [SJ000573006-1, U16708/127/1]",12.8,4.042,-0.3031,0.7137,4.852,-1.095,-1.786,-0.7641
"CCS(=O)(=O)c1ccc(OC)c(Nc2ncc(-c3cccc(F)c3)o2)c1 [SJ000573008-1, U15747/41/2]",-0.1874,0.9043,1.214,0.9608,0.7614,41.43,1.435,34.16
"COc1cc(Nc2ncc(-c3ccccc3)o2)cc(OC)c1OC [SJ000573009-1, U21834/26/1]",41.65,106.1,48.56,46.26,12.03,70.39,25.07,93.46
"O=S(=O)(CCNCc1ccc(-c2ccc3ncnc(Nc4ccc(OCc5cccc(F)c5)c(Cl)c4)c3c2)o1)c1ccccc1 [SJ000573010-1, U15277/78/1]",-1.699,1.889,1.807,0.08634,-1.695,-1.134,-3.622,2.488
"CS(=O)(=O)CCNCc1ccc(-c2ccc3ncnc(Nc4ccc(OCc5ccccc5)c(Br)c4)c3c2)o1 [SJ000573011-1, U14801/114/2]",1.432,0.7024,-1.717,-0.7119,2.264,1.235,-3.258,0.135
"Fc1ccc(-c2ncn(C3CCNCC3)c2-c2ccnc(Oc3ccc(F)c(F)c3)n2)cc1 [SJ000573012-1, JB27026-232B1]",-0.6747,0.6183,-1.918,1.308,1.648,1.825,-2.095,-3.394
"Fc1ccc(-c2ncn(C3CCNCC3)c2-c2ccnc(Oc3ccccc3)n2)cc1 [SJ000573013-1, JB19236-077B1]",6.56,-1.927,2.101,1.79,-0.5294,0.9088,0.9358,-2.821
"C[C@@H](Oc1cc(-n2cnc3ccc(OC4CCN(C)CC4)cc32)sc1C(N)=O)c1ccccc1Cl [SJ000573015-1, U20958/186/1]",79.26,85.68,71,28.2,56.77,65.04,91.2,100.2
"CS(=O)(=O)CCN(CC#N)Cc1ccc(-c2ccc3ncnc(Nc4ccc(OCc5cccc(F)c5)c(Cl)c4)c3c2)o1 [SJ000573016-1, U15872/6/1]",-2.462,0.1592,1.155,-0.1489,3.038,-0.4968,3.973,0.2014
"COc1cc2ncn(-c3cc(OCc4ccccc4C(F)(F)F)c(C(N)=O)s3)c2cc1OC [SJ000573017-1, U19479/72/1]",5.686,61.69,52.87,50.35,10.85,11.51,75.37,75.9
"COc1ccc2ncn(-c3cc(O[C@H](C)c4ccccc4Cl)c(C(N)=O)s3)c2c1 [SJ000573018-1, U20814/197/10]",95.84,106.8,80.58,40.68,74.69,78.2,105.8,77.34
"NC(=O)c1cc(-c2ccc(F)cc2)cc(-c2ccncc2)c1N [SJ000573019-1, R12070/183/1]",0.09024,2.8,-0.8611,-4.125,-0.425,-5.414,-3.642,2.771
"CS(=O)(=O)CCNCc1coc(-c2ccc3ncnc(Nc4ccc(OCc5ccccc5)cc4)c3c2)c1 [SJ000573020-1, U12271/135/2]",-1.974,4.823,2.077,1.422,-1.503,24.68,-2.581,31.36
"NC(=O)Cc1ccccc1Oc1nccc(-c2c(-c3ccc(F)cc3)ncn2C2CCNCC2)n1 [SJ000573021-1, JB27143-130B1]",2.665,-8.193,-0.5311,0.1798,1.576,-0.3846,-2.017,-3.279
"CS(=O)(=O)CCNCc1ccoc1-c1ccc2ncnc(Nc3ccc(OCc4ccccc4)cc3)c2c1 [SJ000573022-1, U12271/142/3]",3.335,1.228,-0.4603,0.6017,-1.789,13.73,4.198,26.01
"COc1cc2ncn(-c3cc(OCc4ccccc4Cl)c(C(N)=O)s3)c2cc1OC [SJ000573023-1, U22436/143/1]",71.75,98.04,71.67,36.08,71.19,72.02,101,81.3
"CCS(=O)(=O)c1ccc(OC)c(Nc2ncc(-c3cccc(C(C)=O)c3)o2)c1 [SJ000573024-1, U16419/42/1]",-0.8609,1.586,71.28,-2.018,-0.9431,66.42,133.2,78.46
"COc1cc2ncn(-c3cc(OCCc4ccccc4)c(C(N)=O)s3)c2cc1OC [SJ000573025-1, U19479/153/8]",0.4642,4.39,0.712,0.6694,-1.969,2.077,0.3839,2.298
"N#Cc1c(NC(=O)c2cccc3ccccc23)sc2c1CCCC2 [SJ000573026-1, R15619/70/1 | TCS JNK 5A | JNK INHIBITOR IX | | TCS JNK 5A]",42.98,122.9,83.53,58.68,100.8,80.18,97.41,87.75
"COc1cccc(-n2ncc3c(N/N=C/c4ccc(S(C)(=O)=O)cc4)ncnc32)c1 [SJ000573027-1, U18028/92/1]",-7.861,-4.499,-1.909,-4.304,0.1842,1.569,-5.045,-3.446
